The text below walks through data of patent US20220265657A1, “ADMINISTRATION METHOD AND DOSAGE REGIMEN FOR TREATMENT OF NEURODEGENERATIVE DISEASES USING TRAMETINIB AND MARKERS” (GENUV INC., priority 2019, published 2022).

One assay relates to SH-SY5Y cells. Kind of assay: Western blot of SH-SY5Y cell lysates. It is filed as cell-based. The note with it: co-treatment with trametinib, in the presence of Aβ1-42 oligomers. How it is done: (§1) Cell culture: SH-SY5Y neuroblastoma cells were cultured at 37° C., 5% CO2., in Dulbecco's Modified Eagle Medium/Ham's F-12 nutrient mixture (DMEM/F12) (Invitrogen, Carlsbad, Calif.) supplemented with 10% heat-inactivated fetal bovine serum containing 100 units/ml penicillin, 100 μg/ml streptomycin. Primary cortical neuron cultures were derived from embryo day 18 (E18) from ICR mice. The dissociated cells were plated on glass cover slips coated with poly-D-lysine in Neurobasal medium supplemented with 2% B27 (Invitrogen), 100 units/ml penicillin, 100 μg/ml streptomycin, and 2 mM L-glutamine. Primary NSCs from normal mice were isolated from the subventricular zone (SVZ) of 8 week-old C57BL/6 mice brain. NSCs from adult Tg2576 mice brain were obtained from Seoul National University Hospital. The neurospheres were cultured as previously described (M. Y. Kim, B. S. Moon, K. Y. Choi, Isolation and maintenance of cortical neural progenitor cells in vitro. Methods Mol Biol 1018, 3-10 (2013)). For neurosphere culture from normal mice, the cells were dissociated from brain tissue and grown in N2 medium in 25 cm^2 flasks (SPL, Gyeonggi-do, Korea) in suspension. bFGF (20 ng/ml, Peprotech, Princeton, N.J.) and human EGF (20 ng/ml, Peprotech) were added to the media to allow the cells to form neurospheres. For analyses, NSCs were cultured as a monolayer. For differentiation of NSCs, the neurospheres were dissociated with TrypLE (Invitrogen), plated on 15 μg/ml poly-L-ornithine-(Sigma-Aldrich, St. Louis, Mo.) and 10 μg/ml fibronectin (Gibco)-coated plates, and cultured in bFGF- and EGF-depleted N2 medium for 2 days. For neurosphere culture from Tg2576 mice, the cells were grown in DMEM/F12 supplemented with B27 supplements in 75 cm^2 flasks (SPL) in suspension. bFGF (10 ng/ml) and human EGF (10 ng/ml) were added to the media to allow the cells to form neurospheres. For inducing differentiation and AP expression, the neurospheres were dissociated with pipetting, plated on 15 μg/ml poly-L-ornithine- and 10 μg/ml fibronectin (Gibco)-coated plates, and cultured in bFGF- and EGF-depleted medium for 2 days.
(§2) Lysates were centrifuged at 13,000 rpm for 20 min at 4° C., and the protein content in the supernatant was determined using the Bradford assay (Bio-rad, Hercules, Calif.). For subcellular fractionation, cells were lysed with lysis buffer (250 mM Sucrose, 20 mM HEPES, pH 7.4, 10 mM KCl, 1.5 mM MgCl2, 1 mM EGTA, 1 mM EDTA, 1 mM DTT) containing protease inhibitor for 30 min on ice, followed by centrifugation at 720 g for 5 min at 4° C. Supernatants were centrifuged at 15,000 rpm for 10 min at 4° C., and the resulting supernatant was used as the cytosol fraction. After centrifugation at 720 g for 5 min, pellets were washed with lysis buffer and dissolved in nuclear lysis buffer (50 mM Tris HCl, pH 8.0, 150 mM NaCl, 1% NP40, 0.5% sodium deoxycholate, 0.1% SDS, 10% glycerol) as the nuclear fraction. Protein from each sample was subjected to 8%˜15% SDS-PAGE, and the resolved proteins were transferred to nitrocellulose or polyvinylidene fluoride membrane. The membranes were blocked with 5% nonfat milk powder in Tris-buffered saline/Tween 20 (TBST) for 1 h at room temperature, then incubated with anti-phospho-ERK (Cell signaling), anti-ERK (Cell signaling), anti-LAMP1 (Abcam), anti-LC3 (Cell signaling), anti-cathepsin B (Cell signaling), anti-p62 (Cell signaling), anti-p62 (5114, Cell signaling), anti-phospho-mTOR (5536, Cell signaling), anti-mTOR (2983, Cell signaling), anti-phospho-ULK1 (14202, Cell signaling), anti-ULK1 (8054, Cell signaling), anti-TFEB (852501, Biolegend), and anti-GAPDH (Cell signaling) overnight at 4° C.
Background: A western blot detects proteins with antibodies after separation by electrophoresis.

In assay [1] the test system is primary cortical neurons. Kind of assay: Dendritic spine formation in primary cortical neurons. The assay is classed as cell-based, ICR mice. The note with it: Aβ1-42 oligomer alone. How it is done:
as §1, with “For inducing differentiation and AP expression, the neurospheres were dissociated with pipetting, plated on 15 μg/ml poly-L-ornithine- and 10 μg/ml fibronectin (Gibco)-coated plates, and cultured in bFGF- and EGF-depleted medium for 2 days.” left out

For assay [2], the system named is primary cortical neurons. Kind of assay: Western blot of primary cortical neurons. The assay is classed as cell-based, ICR mice. The conditions noted are these: Aβ1-42 oligomers alone. How it is done: as §2

On to `CO/C1=C\C(C)=C\[C@@H](C)[C@@H](O)[C@@H](C)C/C(C)=C/C=C/[C@H](OC)[C@@H]([C@@H](C)[C@@H](O)[C@H](C)[C@@]2(O)C[C@@H](O)[C@H](C)[C@@H](C(C)C)O2)OC1=O` [bafilomycin A1], for which the “effect of trametinib on increasing mature cathepsin B and decreasing p62” value with SH-SY5Y cells was “eliminated the effect of trametinib”. Turning to “Aβ1-42 oligomers: cytotoxic oligomers of Aβ1-42 used to induce neurotoxic conditions”, the “decrease in number of dendritic spines compared to vehicle treated group (CTL)” value with primary cortical neurons [1] is 24%. Further, the “decrease of mature cathepsin B level compared to non-treated neurons (CTL)” value in the assay on primary cortical neurons [2] worked out at 26%.
